Data taken from patent US12227495B2, “Herbicidal compounds” (SYNGENTA CROP PROTECTION AG, priority 2018, dated 2025).

Legend:
Type in all cases: in vivo
Conditions in all cases: evaluated after 13 days
[1] = tested on: Solanum nigrum (SOLNI); test: Post-emergence herbicide test, glasshouse, percentage damage
Procedure, shortened: (§1)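 Pots of standard soil were sown and kept in a glasshouse at 24/16 °C day/night, 14 h light, 65% humidity; plants were sprayed one day after sowing (pre-emergence) or after 8 days (post-emergence) at 500 g/ha unless otherwise stated. Damage was scored after 13 days on a five-point scale (5=81-100%; 1=0-20%).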

[2] = tested on: Lolium perenne (LOLPE); test: as above
Procedure, shortened: as §1

[3] = tested on: Amaranthus retoflexus (AMARE); test: as above
Procedure, shortened: as §1

[4] = tested on: Ipomoea hederacea (IPOHE); test: as above
Procedure, shortened: as §1

[5] = tested on: Echinochloa crus-galli (ECHCG); test: as above
Procedure, shortened: as §1

[6] = tested on: Setaria faberi (SETFA); test: as above
Procedure, shortened: as §1

[7] = tested on: Solanum nigrum (SOLNI); test: Pre-emergence herbicide test, glasshouse, percentage damage
Procedure, shortened: as §1

[8] = tested on: Lolium perenne (LOLPE); test: as above
Procedure, shortened: as §1

[9] = tested on: Amaranthus retoflexus (AMARE); test: as above
Procedure, shortened: as §1

[10] = tested on: Ipomoea hederacea (IPOHE); test: as above
Procedure, shortened: as §1

[11] = tested on: Echinochloa crus-galli (ECHCG); test: as above
Procedure, shortened: as §1

[12] = tested on: Setaria faberi (SETFA); test: as above
Procedure, shortened: as §1

Row | SMILES | percentage damage caused to the plant, SOLNI ([1]; 1000 g/ha) | percentage damage caused to the plant, LOLPE ([2]; 1000 g/ha) | percentage damage caused to the plant, AMARE ([3]; 1000 g/ha) | percentage damage caused to the plant, IPOHE ([4]; 1000 g/ha) | percentage damage caused to the plant, ECHCG ([5]; 1000 g/ha) | percentage damage caused to the plant, SETFA ([6]; 1000 g/ha) | Pre-emergence Test SOLNI percentage damage (five point scale) ([7]; rate 1000 g/ha) | Pre-emergence Test LOLPE percentage damage (five point scale) ([8]; rate 1000 g/ha) | Pre-emergence Test AMARE percentage damage (five point scale) ([9]; rate 1000 g/ha) | Pre-emergence Test IPOHE percentage damage (five point scale) ([10]; rate 1000 g/ha) | Pre-emergence Test ECHCG percentage damage (five point scale) ([11]; rate 1000 g/ha) | Pre-emergence Test SETFA percentage damage (five point scale) ([12]; rate 1000 g/ha) | other results
1 | Fc1cc(Cl)cnc1Oc1ccc(Br)c(Br)c1-n1cc(C(F)(F)F)cn1 [Compound A61] | 5 (5=81-100%) | 1 (1=0-20%) | 5 (5=81-100%) | 2 (2=21-40%) | 1 (1=0-20%) | 2 (2=21-40%) | 1 (1=0-20%) | 1 (1=0-20%) | 1 (1=0-20%) | 1 (1=0-20%) | 1 (1=0-20%) | 2 (2=21-40%) | 
2 | Fc1cccc(Oc2cc(OC(F)(F)F)ccn2)c1-c1cc(C(F)F)no1 [Compound A62] | 3 (3=41-60%) | 2 (2=21-40%) | 4 (4=61-80%) | 3 (3=41-60%) | 3 (3=41-60%) | 3 (3=41-60%) | 1 (1=0-20%) | 1 (1=0-20%) | 4 (4=61-80%) | 1 (1=0-20%) | 1 (1=0-20%) | 1 (1=0-20%) | 
3 | Fc1cc(Cl)cnc1Oc1ccccc1-c1csc(Cl)c1 [Compound A69] | 4 (4=61-80%) | 1 (1=0-20%) | 3 (3=41-60%) | 2 (2=21-40%) | 4 (4=61-80%) | 3 (3=41-60%) | 1 (1=0-20%) | 1 (1=0-20%) | 3 (3=41-60%) | 1 (1=0-20%) | 1 (1=0-20%) | 1 (1=0-20%) | 
4 | Fc1cc(Cl)cnc1Oc1ccccc1-c1ccsc1 [Compound A70] | 4 (4=61-80%) | 1 (1=0-20%) | 3 (3=41-60%) | 1 (1=0-20%) | 3 (3=41-60%) | 2 (2=21-40%) | 1 (1=0-20%) | 1 (1=0-20%) | 2 (2=21-40%) | 1 (1=0-20%) | 1 (1=0-20%) | 1 (1=0-20%) | 
5 | COc1csc(-c2ccccc2Oc2ncc(Cl)cc2F)c1 [Compound A71] | 5 (5=81-100%) | 1 (1=0-20%) | 4 (4=61-80%) | 1 (1=0-20%) | 1 (1=0-20%) | 2 (2=21-40%) | 1 (1=0-20%) | 1 (1=0-20%) | 5 (5=81-100%) | 1 (1=0-20%) | 1 (1=0-20%) | 1 (1=0-20%) | 
6 | Fc1cccc(Oc2ccc(C(F)F)cn2)c1-c1cc(C(F)F)no1 [Compound A77] |  |  |  |  |  |  |  |  |  |  |  |  | percentage damage caused to the plant, SOLNI ([1]; 250 g/ha): 5 (5=81-100%); percentage damage caused to the plant, LOLPE ([2]; 250 g/ha): 2 (2=21-40%); percentage damage caused to the plant, AMARE ([3]; 250 g/ha): 5 (5=81-100%); percentage damage caused to the plant, IPOHE ([4]; 250 g/ha): 1 (1=0-20%); percentage damage caused to the plant, ECHCG ([5]; 250 g/ha): 2 (2=21-40%); percentage damage caused to the plant, SETFA ([6]; 250 g/ha): 5 (5=81-100%); Pre-emergence Test SOLNI percentage damage (five point scale) ([7]; rate 250 g/ha): 4 (4=61-80%); Pre-emergence Test LOLPE percentage damage (five point scale) ([8]; rate 250 g/ha): 2 (2=21-40%); Pre-emergence Test AMARE percentage damage (five point scale) ([9]; rate 250 g/ha): 5 (5=81-100%); Pre-emergence Test IPOHE percentage damage (five point scale) ([10]; rate 250 g/ha): 1 (1=0-20%); Pre-emergence Test ECHCG percentage damage (five point scale) ([11]; rate 250 g/ha): 2 (2=21-40%); Pre-emergence Test SETFA percentage damage (five point scale) ([12]; rate 250 g/ha): 5 (5=81-100%)
7 | Fc1cccc(Oc2cc(C(F)(F)F)c(C(F)(F)F)cn2)c1-c1cc(C(F)F)no1 [Compound A78] | 4 (4=61-80%) | 1 (1=0-20%) | 3 (3=41-60%) | 1 (1=0-20%) | 1 (1=0-20%) | 1 (1=0-20%) | 1 (1=0-20%) | 1 (1=0-20%) | 1 (1=0-20%) | 1 (1=0-20%) | 1 (1=0-20%) | 2 (2=21-40%) | 
8 | Fc1cccc(Oc2nc(Cl)ccc2C(F)(F)F)c1-c1cc(C(F)F)no1 [Compound A80] | 5 (5=81-100%) | 1 (1=0-20%) | 5 (5=81-100%) | 1 (1=0-20%) | 1 (1=0-20%) | 1 (1=0-20%) | 1 (1=0-20%) | 1 (1=0-20%) | 2 (2=21-40%) | 1 (1=0-20%) | 1 (1=0-20%) | 1 (1=0-20%) | 
9 | Fc1cc(Cl)cnc1Oc1ccccc1-n1ncc(C(F)(F)F)n1 [Compound A81] | 4 (4=61-80%) | 1 (1=0-20%) | 5 (5=81-100%) | 2 (2=21-40%) | 4 (4=61-80%) | 4 (4=61-80%) | 3 (3=41-60%) | 1 (1=0-20%) | 5 (5=81-100%) | 2 (2=21-40%) | 4 (4=61-80%) | 4 (4=61-80%) | 
10 | Fc1cc(Cl)cnc1Oc1ccccc1-n1cc(C(F)(F)F)nn1 [Compound A82] | 5 (5=81-100%) | 5 (5=81-100%) | 5 (5=81-100%) | 5 (5=81-100%) | 4 (4=61-80%) | 5 (5=81-100%) | 4 (4=61-80%) | 5 (5=81-100%) | 5 (5=81-100%) | 5 (5=81-100%) | 5 (5=81-100%) | 5 (5=81-100%) | 
11 | Fc1cc(Cl)cnc1Oc1c(Br)cccc1-c1cc(C(F)F)no1 [Compound A83] | 4 (4=61-80%) | 4 (4=61-80%) | 5 (5=81-100%) | 2 (2=21-40%) | 4 (4=61-80%) | 4 (4=61-80%) | 1 (1=0-20%) | 1 (1=0-20%) | 4 (4=61-80%) | 1 (1=0-20%) | 2 (2=21-40%) | 2 (2=21-40%) | 
12 | N#Cc1cc(F)cnc1Oc1cccc(Br)c1-c1cc(C(F)F)no1 [Compound A84] | 5 (5=81-100%) | 5 (5=81-100%) | 5 (5=81-100%) | 5 (5=81-100%) | 5 (5=81-100%) | 5 (5=81-100%) | 4 (4=61-80%) | 5 (5=81-100%) | 5 (5=81-100%) | 5 (5=81-100%) | 5 (5=81-100%) | 5 (5=81-100%) | 
